In patent US12180187B2, “1-phenyl-5-azinylpyrazolyl-3-oxyalkyl acids and their use for controlling unwanted plant growth” (BAYER AKTIENGESELLSCHAFT, priority 2019, dated 2024):
Several values for one entry are separate records, joined by “and”; a condition that tells them apart may be missing. Identical values can stand only once.

Tests used:
LOLRI [1] = experiment: Pre-emergence action against LOLRI, 1280 g/ha; format: in vivo, Lolium rigidum; conditions: visual scoring after about 3 weeks vs untreated controls, 100% = plants have died, 0% = like control plants; for pest or weed control at 1280 g/ha: Lolium rigidum, 504 h
How it was run: (§1)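 Greenhouse pre-emergence test on sown seeds in sandy loam; soil-surface spray of formulated compound with 0.5% additive at 600 L/ha water. Scored visually, % vs untreated, after about 3 weeks.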

VERPE = experiment: Pre-emergence action against VERPE, 1280 g/ha; format: in vivo, Veronica persica; conditions: scored visually after about 3 weeks vs untreated controls (100% = plants have died); for pest or weed control at 1280 g/ha: Veronica persica, 504 h
How it was run: as §1

ECHGC = experiment: Pre-emergence action at 320 g/ha against ECHGC; format: in vivo, Echinochloa crus-galli; conditions: visual scoring after about 3 weeks vs untreated controls
How it was run: (§2)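 Visual scoring in percent against untreated controls, about 3 weeks after treatment, where 100% means dead plants and 0% means no difference. Compounds were applied as aqueous suspension or emulsion (WP or EC, plus 0.5% additive) onto soil covering freshly sown seeds, at 600 l/ha water.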

LOLRI [2] = experiment: Pre-emergence action at 320 g/ha against LOLRI; format: in vivo, Lolium rigidum; conditions: visual scoring after about 3 weeks vs untreated controls; for pest or weed control at 320 g/ha: Lolium rigidum, 504 h
How it was run: as §2

PHBPU = experiment: Pre-emergence action at 320 g/ha against PHBPU; format: in vivo; conditions: visual scoring after about 3 weeks vs untreated controls
How it was run: as §2

STEME [3] = experiment: Pre-emergence action at 320 g/ha against STEME; format: in vivo, Stellaria media; conditions: greenhouse, scored visually after about 3 weeks vs untreated controls, 100% = plants have died, 0% = like control plants
From the text: (§3) b) Seeds of monocotyledonous and dicotyledonous weed plants and crop plants are placed in plastic or organic planting pots and covered with soil. The compounds of the invention, formulated in the form of wettable powders (WP) or as emulsion concentrates (EC), are then applied onto the surface of the covering soil as aqueous suspension or emulsion with addition of 0.5% additive at a water application rate of 600 l/ha (converted). After the treatment, the pots are placed in a greenhouse and kept under good growth conditions for the trial plants. After about 3 weeks, the effect of the preparations is scored visually in comparison with untreated controls as percentages. For example, 100% activity=the plants have died, 0% activity=like control plants. Tables 13 to 26 below show the effects of selected compounds of the general formula (I) on various harmful plants and at an application rate corresponding to 320 g/ha, which were obtained by the experimental procedure mentioned above.

HORMU [4] = experiment: Pre-emergence action at 320 g/ha against HORMU; format: in vivo, Hordeum murinum; conditions: greenhouse, scored visually after about 3 weeks vs untreated controls, 100% = plants have died, 0% = like control plants
From the text: as §3

ECHCG = experiment: Post-emergence action against ECHCG, 1.28 kg/ha; format: in vivo, Echinochloa crus-galli; conditions: dosage 1280 g/ha, visual rating about 3 weeks after treatment vs untreated controls; for pest or weed control at 1280 g/ha: Echinochloa crus-galli, 504 h
How it was run: (§4)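 Greenhouse-grown weeds (sandy loam, twin-sown pots) were treated 2–3 weeks post-sowing at one leaf. The spray was an aqueous WP/EC preparation plus 0.5% additive, applied at 600 L/ha. Scoring was visual at ~3 weeks, 0–100% versus untreated controls.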

ABUTH [5] = experiment: Post-emergence action against ABUTH, 1.28 kg/ha; format: in vivo, Abutilon theophrasti; conditions: dosage 1280 g/ha, visual rating about 3 weeks after treatment vs untreated controls (100% = plants died)
How it was run: as §4

STEME [6] = experiment: Post-emergence action against STEME, 1.28 kg/ha; format: in vivo, Stellaria media; conditions: dosage 1280 g/ha, visual rating about 3 weeks after treatment vs untreated controls (100% = plants died)
How it was run: as §4

ABUTH [7] = experiment: Post-emergence action at 320 g/ha against ABUTH; format: in vivo, Abutilon theophrasti; conditions: visual rating about 3 weeks after treatment vs untreated controls
How it was run: (§5)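 Sow in sandy loam → greenhouse growth 2–3 wk → spray at one-leaf stage (WP/EC, aqueous, +0.5% additive, 600 l/ha) → hold ~3 wk under optimum conditions → visual rating, 0–100% relative to untreated.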

SETVI = experiment: Post-emergence action at 320 g/ha against SETVI; format: in vivo, Setaria viridis; conditions: visual rating about 3 weeks after treatment vs untreated controls
How it was run: as §5

AVEFA = experiment: Post-emergence action at 320 g/ha against AVEFA; format: in vivo; conditions: visual rating about 3 weeks after treatment vs untreated controls; for pest or weed control at 320 g/ha: Avena fatua, 504 h
How it was run: as §5

HORMU [8] = experiment: Post-emergence action at 320 g/ha against HORMU; format: in vivo, Hordeum murinum; conditions: visual rating about 3 weeks after treatment vs untreated controls
From the text: Accordingly, the compounds of the invention have good herbicidal action against a broad spectrum of weed grasses and broad-leaved weeds and are therefore suitable for controlling unwanted vegetation by the post-emergence method. • b) Seeds of monocotyledonous and dicotyledonous weeds and crop plants are placed in sandy loam in plastic or organic planting pots, covered with soil and cultivated in a greenhouse under controlled growth conditions. 2 to 3 weeks after sowing, the test plants are treated at the one-leaf stage. The compounds of the invention, formulated in the form of wettable powders (WP) or as emulsion concentrates (EC), are then sprayed onto the green parts of the plants as aqueous suspension or emulsion with addition of 0.5% additive at a water application rate of 600 l/ha (converted). After the test plants have been kept in the greenhouse under optimum growth conditions for about 3 weeks, the activity of the preparations is rated visually in comparison to untreated controls. For example, 100% activity=the plants have died, 0% activity=like control plants. Tables 39 to 49 below show the effects of selected compounds of the general formula (I) according to Tables 1 and 2 on various harmful plants and at an application rate corresponding to 320 g/ha, which were obtained by the experimental procedure mentioned above.

ABUTH [9] = experiment: Pre-emergence action at 320 g/ha against ABUTH; format: in vivo, Abutilon theophrasti; conditions: greenhouse, scored visually after about 3 weeks vs untreated controls, 100% = plants have died, 0% = like control plants
How it was run: as §2

KCHSC [10] = experiment: Pre-emergence action against KCHSC, 1280 g/ha; format: in vivo, Bassia scoparia; conditions: scored visually after about 3 weeks vs untreated controls (100% = plants have died)
How it was run: as §1

ALOMY = experiment: Post-emergence action against ALOMY, 1.28 kg/ha; format: in vivo, Alopecurus myosuroides; conditions: dosage 1280 g/ha, visual rating about 3 weeks after treatment vs untreated controls
How it was run: as §4

KCHSC [11] = experiment: Post-emergence action against KCHSC, 1.28 kg/ha; format: in vivo, Bassia scoparia; conditions: dosage 1280 g/ha, visual rating about 3 weeks after treatment vs untreated controls (100% = plants died)
How it was run: as §4

SMILES	Pre-emergence action against LOLRI (LOLRI [1])	Pre-emergence action against VERPE (VERPE)	Pre-emergence action against ECHGC in % (ECHGC)	Pre-emergence action against LOLRI in % (LOLRI [2])	Pre-emergence action against PHBPU in % (PHBPU)	Pre-emergence action at 320 g/ha against STEME in % (STEME [3])	Pre-emergence action at 320 g/ha against HORMU in % (HORMU [4])	Post-emergence action against ECHCG (ECHCG)	Post-emergence action against ABUTH (ABUTH [5])	Post-emergence action against STEME (STEME [6])	Post-emergence action against ABUTH in % (ABUTH [7])	Post-emergence action against SETVI in % (SETVI)	Post-emergence action against AVEFA in % (AVEFA)	Post-emergence action against HORMU in % (HORMU [8])	pest or weed control at 1280 g/ha (LOLRI [1])	pest or weed control at 1280 g/ha (VERPE)	pest or weed control at 320 g/ha (LOLRI [2])	pest or weed control at 1280 g/ha (ECHCG)	pest or weed control at 320 g/ha (AVEFA)	Post-emergence action against ALOMY (ALOMY)	also measured
COC(=O)C(C)Oc1nn(-c2ccccc2)c(-c2cccnc2)c1Cl (centres unmarked) [VII-032]	100%	100%	90%	100%	100%	90%	80%	100%	90%	100%	80%	80%	100%	90%	–	–	–	–	–	–	–
COC(=O)COc1nn(-c2ccccc2F)c(-c2cncnc2)c1Br [VI-004, Methyl {[4-bromo-1-(2-fluorophenyl)-5-(pyrimidin-5-yl)-1H-pyrazol-3-yl]oxy}acetate]	–	–	–	–	–	90%	100%	–	90%	90%	80%	80%	–	90%	100%	90%	90%	90%	100%	–	Pre-emergence action at 320 g/ha against ABUTH in % (ABUTH [9]): 80%
CCOC(=O)C(C)Oc1nn(-c2ccccc2F)c(-c2ccc(F)nc2)c1Br (centres unmarked) [VII-019]	100%	100%	100%	100%	90%	90%	100%	100%	–	100%	80%	80%	100%	100%	–	–	–	–	–	100%	Pre-emergence action against KCHSC (KCHSC [10]): 100%; Post-emergence action against KCHSC (KCHSC [11]): 90%
O=C(O)COc1nn(-c2ccccc2F)c(-c2ccc(F)nc2)c1Br [VII-003, {[4-Bromo-1-(2-fluorophenyl)-5-(6-fluoropyridin-3-yl)-1H-pyrazol-3-yl]oxy}acetic acid]	–	–	100%	–	90%	90%	90%	–	–	100%	80%	–	–	90%	100%	90%	100%	90%	80%	90%	–
CCOC(=O)COc1nn(-c2ccc(F)cc2F)c(-c2ccc(F)nc2)c1Cl [VII-016]	100%	90%	100%	100%	90%	90%	90%	90%	90%	100%	90%	80%	80%	80%	–	–	–	–	–	–	–
CCOC(=O)COc1nn(-c2ccccc2F)c(-c2ccc(F)nc2)c1Br [VII-012, Ethyl {[4-bromo-1-(2-fluorophenyl)-5-(6-fluoropyridin-3-yl)-1H-pyrazol-3-yl]oxy}acetate]	–	–	100%	–	90% and 80%	100%	80%	–	100%	100%	80%	100% and 80%	–	90%	100%	100%	90%	100%	90%	100%	Post-emergence action against KCHSC (KCHSC [11]): 90%
